The source of these data is patent US20020086814A1 (priority 2000, published 2002).

Experiment [1] relates to Vero cells. Type of experiment: cell-based.
Experiment [2] concerns Vero cells. Type of experiment: cell-based. The source holds these as a separate data set.

On to chlorin e6 [free Ce6], for which the “Cell-associated Ce6-specific fluorescence” value in experiment [1] is on record as “no detectable Ce6-specific fluorescence”. Besides, the “LD50 of photodynamic cell killing, expressed in molar concentration of Ce6” value in experiment [2] was found to be 1.2 nmol/mL.
